Where two headings read alike, the source gives them in different places.
Columns and labels:
[1] = system: drug-sensitive CCRF-CEM leukemia cells; assay: Resazurin reduction assay, CCRF-CEM; assay type: cell-based, human
Description: (§1) The cell lines used the present work, their origins and their treatments were previously reported. They include drug-sensitive CCRF-CEM and multidrug-resistant P-glycoprotein over-expressing CEM/ADR5000 leukemia cells, the MDA-MB-231-pcDNA3 breast cancer cells and its resistant subline MDA-MB-231-BCRP clone 23), the HCT116 (p53^+/+) colon cancer cells and its knockout clones HCT116 (p53^-/-), the U87MG glioblastoma cells and its resistant subline U87MG.ΔEGFR, HepG2 hepatocarcinoma cells and AML12 normal hepatocytes. The CCRF-CEM and CEM/ADR5000 leukemia cells were maintained in RPMI 1640 medium (Invitrogen) supplemented with 10% fetal calf serum in a humidified 5% CO2 atmosphere at 37°C. Sensitive and resistant cells were kindly provided by Dr. Axel Sauerbrey (Department of Pediatrics, University of Jena, Jena, Germany). The generation of the resistant subline was previously described. Breast cancer cells, transduced with control vector (MDA-MB-231-pcDNA3) or with cDNA for the breast cancer resistance protein BCRP (MDA-MB-231-BCRP clone 23), were maintained under standard conditions as described above for CCRF-CEM cells. Human wild-type HCT116 (p53^+/+) colon cancer cells as well as knockout clones HCT116 (p53^-/-) derived by homologous recombination were a generous gift from Dr. B. Vogelstein and H. Hermeking (Howard Hughes Medical Institute, Baltimore, MD). Human glioblastoma multiforme U87MG cells (non-transduced) and U87MG cell line transduced with an expression vector harboring an epidermal growth factor receptor (EGFR) gene with a genomic deletion of exons 2 through 7 (U87MG.ΔEGFR) were kindly provided by Dr. W. K. Cavenee (Ludwig Institute for Cancer Research, San Diego, CA). MDA-MB-231-BCRP, U87MG.ΔEGFR and HCT116 (p53^-/-) were maintained in DMEM medium containing 10% FBS (Invitrogen) and 1% penicillin (100 U/mL)-streptomycin (100 μg/mL) (Invitrogen) and were continuously treated with 800 ng/mL and 400 μg/mL geneticin, respectively. Human HepG2 hepatocellular carcinoma cells and normal AML12 heptocytes were obtained from the American Type Culture Collection (ATCC, USA). The above medium without geneticin was used to maintain MDA-MB-231, U87MG, HCT116 (p53^+/+), HepG2 and AML12 cell lines. The cells were passaged twice weekly. All experiments were performed with cells in the logarithmic growth phase.
(§2) The cytotoxicity of the studied samples was performed by resazurin reduction assay as we previously described. Briefly, adherent cells at 1x10^4 cells were allowed to attach overnight and then treated with different studied samples. […] For suspension cells, aliquots of 2 × 10^4 cells per well were seeded in 96-well-plates in a final volume of 200 μL. […] The tested concentrations ranges were 0.16 μg/mL to 40 μg/mL for crude extracts and isolated compounds and 0.08 μg/mL to 20 μg/mL for doxorubicin. After 72 h incubation and a resazurin (Sigma-Aldrich, Schnelldorf, Germany) staining, fluorescence was measured on an Infinite M2000 Pro™ plate reader (Tecan, Crailsheim, Germany) using an excitation wavelength of 544 nm and an emission wavelength of 590 nm. Each assay was done at least two times, with six replicates each. IC50 values represent the sample’s concentrations required to inhibit 50% of cell proliferation and were calculated from a calibration curve by linear regression using Microsoft Excel.

[2] = system: multidrug-resistant P-glycoprotein over-expressing CEM/ADR5000 leukemia cells; assay: Resazurin reduction assay, CEM/ADR5000; assay type: cell-based, human; conditions: for IC50: CEM/ADR5000, 72 h; for degree of resistance: IC50 CEM/ADR5000 divided by IC50 CCRF-CEM
Description: as §1, §2

[3] = system: MDA-MB-231-pcDNA3 breast cancer cells; assay: Resazurin reduction assay, MDA-MB-231; assay type: cell-based; conditions: MDA-MB-231, 72 h
Description: as §1, §2

[4] = system: MDA-MB-231-BCRP clone 23 breast cancer cells; assay: Resazurin reduction assay, MDA-MB-231-BCRP; assay type: cell-based; conditions: for degree of resistance: IC50 MDA-MB-231-BCRP divided by IC50 MDA-MB-231; for IC50: 72 h
Description: as §1, §2

[5] = system: HCT116 (p53+/+) colon cancer cells; assay: Resazurin reduction assay, HCT116 p53+/+; assay type: cell-based, human
Description: as §1, §2

[6] = system: HCT116 (p53-/-) colon cancer cells; assay: Resazurin reduction assay, HCT116 p53-/-; assay type: cell-based, human; conditions: for IC50: HCT116 p53-/-, 72 h; for degree of resistance: IC50 HCT116 p53-/- divided by IC50 HCT116 p53+/+
Description: as §1, §2

[7] = system: U87MG glioblastoma cells; assay: Resazurin reduction assay, U87MG; assay type: cell-based, human; conditions: 72 h
Description: as §1, §2

[8] = system: U87MG.ΔEGFR glioblastoma cells; assay: Resazurin reduction assay, U87MG.ΔEGFR; assay type: cell-based, human; conditions: for IC50: U87MG.ΔEGFR, 72 h; for degree of resistance: IC50 U87MG.ΔEGFR divided by IC50 U87MG
Description: as §1, §2

[9] = system: HepG2 hepatocarcinoma cells; assay: Resazurin reduction assay, HepG2; assay type: cell-based, human; conditions: HepG2, 72 h
Description: as §1, §2

[10] = system: AML12 normal hepatocytes; assay: Resazurin reduction assay, AML12; assay type: cell-based; conditions: 72 h
Description: as §1, §2

[11] = system: nine cancer cell lines, sensitive and MDR phenotypes; assay: Resazurin reduction assay, all tested cancer cell lines; assay type: cell-based; conditions: read-out: IC50 values on all tested cancer cell lines
Description: The cell lines used the present work, their origins and their treatments were previously reported. They include drug-sensitive CCRF-CEM and multidrug-resistant P-glycoprotein over-expressing CEM/ADR5000 leukemia cells, the MDA-MB-231-pcDNA3 breast cancer cells and its resistant subline MDA-MB-231-BCRP clone 23), the HCT116 (p53^+/+) colon cancer cells and its knockout clones HCT116 (p53^-/-), the U87MG glioblastoma cells and its resistant subline U87MG.ΔEGFR, HepG2 hepatocarcinoma cells and AML12 normal hepatocytes. The CCRF-CEM and CEM/ADR5000 leukemia cells were maintained in RPMI 1640 medium (Invitrogen) supplemented with 10% fetal calf serum in a humidified 5% CO2 atmosphere at 37°C. Sensitive and resistant cells were kindly provided by Dr. Axel Sauerbrey (Department of Pediatrics, University of Jena, Jena, Germany). The generation of the resistant subline was previously described. […]
The cytotoxicity of the studied samples was performed by resazurin reduction assay as we previously described. […] After 72 h incubation and a resazurin (Sigma-Aldrich, Schnelldorf, Germany) staining, fluorescence was measured on an Infinite M2000 Pro™ plate reader (Tecan, Crailsheim, Germany) using an excitation wavelength of 544 nm and an emission wavelength of 590 nm. […]

[12] = system: human promyeloleukemia cell line HL-60; set-up: method as in PMID 14505793, PMID 12832847, PMID 16310358; conditions: HL-60, via a transient induction of caspase-3/CPP32 activity; cited from earlier work
[13] = Homo sapiens, CCRF-CEM, 72 h; read-out: IC50
[14] = single concentration 40 μg/mL, 72 h, preliminary test
[15] = Homo sapiens, HCT-116, 72 h, read-out: IC50
[16] = Homo sapiens, HCT-116, read-out: IC50
[17] = Homo sapiens, U-87 MG, read-out: IC50
[18] = MDA-MB-231-BCRP, read-out: IC50

Row | Molecule | IC50 [1, 13] [µg/mL] | Growth percentage (growth proliferation) of CCRF-CEM cells [1, 14] | IC50 ([2]; Homo sapiens, read-out: IC50) [µg/mL] | degree of resistance [2] | IC50 ([3]; Homo sapiens, read-out: IC50) [µg/mL] | degree of resistance [4] | IC50 [5, 15] [µg/mL] | IC50 [6, 16] [µg/mL] | IC50 [7, 17] [µg/mL] | IC50 ([8]; Homo sapiens, read-out: IC50) [µg/mL] | IC50 ([9]; Homo sapiens, read-out: IC50) [µg/mL] | IC50 ([10]; Mus musculus, read-out: IC50) [µg/mL] | other results
1 | COc1ccc(-c2oc3cc(OC)cc(O)c3c(=O)c2OC)cc1 [Compound 9, kaempferol-3,7,4’-trimethylether] | 18.4 ± 2.04 | 39.58% | 18.2 ± 1.18 | 0.99 | > 40 | < 0.83 | > 40 | 36.7 ± 2.31 | > 40 | > 40 | > 40 | > 40 | IC50 ([4]; MDA-MB-231/BCRP): 33.1 ± 2.64 µg/mL
2 | CC1(C)CCCC2(C)C1CCC1(CO1)C2CC=C1CCOC1=O (stereo not drawn) [Compound 3, galanolactone] | – | more than 50% | – | – | – | – | – | – | – | – | – | – | –
3 | 1,4-dihydroxybenzene [Compound 7] | – | more than 50% | – | – | – | – | – | – | – | – | – | – | –
4 | COc1cccc2c1C(=O)c1c(O)c3c(c(O)c1C2=O)C[C@@](O)(C(=O)CO)C[C@@H]3O[C@H]1C[C@H](N)[C@H](O)[C@H](C)O1 [Doxorubucin, Doxorubicin, reference compound] | 0.11 ± 0.01 | – | > 20 | 1772 | 1.1 ± 0.01 | 7.11 | 1.43 ± 0.02 | 4.06 ± 0.04 | 1.06 ± 0.03 | 6.11 ± 0.04 | 1.41 ± 0.12 | > 40 | IC50 [4, 18]: 7.83 ± 0.01 µg/mL; degree of resistance [6]: 2.84; degree of resistance [8]: 5.76; IC50 ([11]; all nine tested cancer cell lines): < 40 µg/mL
5 | CC1=CC(O)C(C(C)C)CC1O (stereo not drawn) [Compound 6, 1-p-menthene-3,6-diol] | – | more than 50% | – | – | – | – | – | – | – | – | – | – | –
6 | O=C1C[C@@H](c2ccc(O)cc2)Oc2cc(O)cc(O)c21 [Compound 8, naringenin] | 12.2 ± 1.87 | 38.49% | 7.86 ± 0.74 | 0.64 | 9.51 ± 1.03 | 1.91 | 13.7 ± 1.11 | 13.9 ± 0.94 | 29.8 ± 1.88 | 18 ± 1.34 | 23.5 ± 1.95 | > 40 | IC50 [4, 18]: 18.1 ± 2.01 µg/mL; degree of resistance [6]: 1.02; degree of resistance [8]: 0.60; IC50 [11]: < 40 µg/mL; apoptosis induction [12]: induced apoptosis
7 | CC1(C)CCC[C@@]2(C)[C@H]1CC[C@@]1(CO1)[C@@H]2C/C=C(/C=O)CC=O [Compound 1, aframodial] | – | more than 50% | – | – | – | – | – | – | – | – | – | – | –
8 | CC1(C)CCCC2(C)C1CCC1(C=O)C(O)CC(C=O)=CCC21 (stereo not drawn) [Compound 4, galanal A] | – | 47.78% | > 40 | > 2.31 | > 40 | < 0.70 | > 40 | > 40 | > 40 | > 40 | > 40 | > 40 | IC50 ([1]; Homo sapiens, CCRF-CEM, 72 h, CCRF-CEM, read-out: IC50): 17.3 ± 1.96 µg/mL; IC50 ([4]; MDA-MB-231/BCRP, MDA-MB-231-BCRP, read-out: IC50): 28 ± 2.39 µg/mL
9 | C=C1CCC2C(C)(C)CCCC2(C)C1CC=C(C=O)CC=O (stereo not drawn) [Compound 2, 8(17),12-labdadien-15,16-dial] | – | more than 50% | – | – | – | – | – | – | – | – | – | – | –
10 | CC1(C)CCCC2(C)C1CCC1(C=O)C(O)CC(C=O)=CCC21 (stereo not drawn) [Compound 5, galanal B] | – | 49.81% | – | > 2.02 | – | – | – | – | – | – | – | – | IC50 ([1]; CCRF-CEM, 72 h): 19.81 ± 2.01 µg/mL; IC50 [2]: - ((-): >40 μg/mL); IC50 [3]: - ((-): >40 μg/mL); IC50 ([4]; MDA-MB-231-BCRP): - ((-): >40 μg/mL); IC50 ([5]; 72 h): - ((-): >40 μg/mL); IC50 [6]: - ((-): >40 μg/mL); IC50 [7]: - ((-): >40 μg/mL); IC50 [8]: - ((-): >40 μg/mL); IC50 [9]: - ((-): >40 μg/mL); IC50 [10]: - ((-): >40 μg/mL)

Source: PMC4177760, “Cytotoxicity of four Aframomum species (A. arundinaceum, A. alboviolaceum, A. kayserianum and A. polyanthum) towards multi-factorial drug resistant cancer cell lines” (BMC Complementary and Alternative Medicine, 2014)
